Entries after “also recorded” stand apart in the source; their conditions may differ. One block for each molecule: values may come before it. Ends that are not written are not given here. Peptide text beside a SMILES is read from it.
What was measured:
[1] = target: T1, chicken CRHR1 (cCRHR1) (Gallus gallus, UniProt Q90812); experiment: pGL3-CRE-luciferase reporter assay in CHO cells expressing cCRHR1; format: cell-based; settings: CHO cells transiently expressing cCRHR1; peptide 10^−12-10^−6M, 6 h; luciferase as fold of untreated control; N = 3 replicates
T1 construct: expressed in transfected cells; host or cells: CHO cells, transient transfection (the control used the empty pcDNA3.1(+) vector)
T1 sequence (Q90812 29-420): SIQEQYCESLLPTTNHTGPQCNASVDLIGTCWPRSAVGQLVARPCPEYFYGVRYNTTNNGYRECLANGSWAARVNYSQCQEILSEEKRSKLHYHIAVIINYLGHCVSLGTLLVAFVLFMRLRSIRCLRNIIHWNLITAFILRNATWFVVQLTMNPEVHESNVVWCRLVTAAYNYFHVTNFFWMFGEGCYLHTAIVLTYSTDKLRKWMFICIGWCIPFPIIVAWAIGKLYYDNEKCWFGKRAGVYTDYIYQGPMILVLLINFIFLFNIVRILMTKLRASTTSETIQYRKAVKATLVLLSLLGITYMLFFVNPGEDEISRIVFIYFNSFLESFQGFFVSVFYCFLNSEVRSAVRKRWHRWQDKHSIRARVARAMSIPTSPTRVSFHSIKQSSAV
Experimental: CHO cells were cultured in Dulbecco's Modified Eagle's Medium (DMEM) supplemented with 10% (vol/vol) fetal bovine serum, 100 U/ml penicillin G, and 100 µg/ml streptomycin (HyClone) in a 100 mm dish (Corning) and incubated at 37°C with 5% CO2. As described in our previous study ([35]), the functionality of cCRH2 was examined in CHO cells transiently expressing CRHR1 or CRHR2 by the pGL3-CRE-luciferase reporter system, which was utilized to monitor receptor-mediated activation of the intracellular cAMP/PKA signaling pathway. The luciferase activities in each treatment group were expressed as relative fold increase as compared with that of respective control groups (i.e., without peptide treatment).

[2] = test system: chicken pituitary; settings: cited from earlier work
Excerpt: (§1) The relatively high potency of cCRH2 in activating cCRHR2 led us to examine whether like cCRH, cCRH2 can stimulate TSH expression in the chicken pituitary (Figure 8). […] Our finding raises a new concept that apart from CRH, TRH and GCG-like peptide (GCGL) [which are re ...

[3] = test system: pituitary; settings: cited from earlier work
Excerpt: However, UCN1 expression could not be detected in the hypothalamus and pituitary stalk ([10], [11]), and the selective receptors for UCN2 and UCN3 were not detected in the pituitary ([12]–[14]), hinting that the actions of ...

[4] = test system: CRHR1 and CRHR2; settings: cited from earlier work
Excerpt: It has been well-documented that the roles of CRH-related peptides are mediated by two G protein-coupled receptors, namely CRH receptor 1 (CRHR1) and CRH receptor 2 (CRHR2), which share ~68% amino acid identity with each other ([6], [21], [23]). However, these neuropeptides have distinct preference for these two receptors.

[5] = test system: pituitary; settings: cited from earlier work; remark: listed apart in the source
Excerpt: as §1

EC50 [1]: 28.6 nM
Molecule: CC[C@H](C)[C@H](NC(=O)[C@H](CO)NC(=O)[C@H](CCC(N)=O)NC(=O)[C@H](CC(C)C)NC(=O)[C@H](CC(C)C)NC(=O)[C@H](CC(C)C)NC(=O)[C@H](CCCCN)NC(=O)[C@H](CC(N)=O)NC(=O)[C@H](CO)NC(=O)[C@H](CC(C)C)NC(=O)[C@H](C)NC(=O)[C@H](CCCCN)NC(=O)[C@H](CCC(N)=O)NC(=O)[C@H](C)NC(=O)[C@H](CC(C)C)NC(=O)[C@H](CCCNC(=N)N)NC(=O)[C@H](CCC(=O)O)NC(=O)[C@H](CCC(=O)O)NC(=O)[C@H](CCCNC(=N)N)NC(=O)[C@H](CO)NC(=O)[C@H](CCSC)NC(=O)[C@H](CCC(=O)O)NC(=O)[C@H](CC(C)C)NC(=O)[C@H](Cc1ccccc1)NC(=O)[C@H](CCC(=O)O)NC(=O)[C@H](CCCNC(=N)N)NC(=O)[C@H](CC(C)C)NC(=O)[C@H](CC(C)C)NC(=O)[C@H](Cc1c[nH]cn1)NC(=O)[C@H](Cc1ccccc1)NC(=O)[C@@H](NC(=O)[C@H](CC(C)C)NC(=O)[C@H](CC(=O)O)NC(=O)[C@H](CC(C)C)NC(=O)[C@H](CO)NC(=O)[C@H](CC(N)=O)NC(=O)[C@@H]1CCCN1C(=O)[C@H](CCCCN)NC(=O)CNC(=O)[C@@H](N)CCC(=O)O)[C@@H](C)O)C(N)=O [cCRH2] (H-EGKPNSLDLTFHLLREFLEMSREERLAQKALSNKLLLQSI-NH2)

EC50 [1]: 0.3 nM
Molecule: CC[C@H](C)[C@H](NC(=O)[C@@H](NC(=O)[C@H](CCC(=O)O)NC(=O)[C@H](CCSC)NC(=O)[C@H](CC(C)C)NC(=O)[C@H](CCCCN)NC(=O)[C@H](CCCNC(=N)N)NC(=O)[C@H](CC(N)=O)NC(=O)[C@H](CO)NC(=O)[C@H](Cc1c[nH]cn1)NC(=O)[C@H](C)NC(=O)[C@H](CCC(N)=O)NC(=O)[C@H](CCC(N)=O)NC(=O)[C@H](C)NC(=O)[C@H](CC(C)C)NC(=O)[C@H](CCC(N)=O)NC(=O)[C@H](CCC(=O)O)NC(=O)[C@H](C)NC(=O)[C@H](CCCNC(=N)N)NC(=O)[C@H](C)NC(=O)[C@H](CCSC)NC(=O)[C@H](CCC(=O)O)NC(=O)[C@H](CC(C)C)NC(=O)[C@@H](NC(=O)[C@H](CCC(=O)O)NC(=O)[C@H](CCCNC(=N)N)NC(=O)[C@H](CC(C)C)NC(=O)[C@H](CC(C)C)NC(=O)[C@H](Cc1c[nH]cn1)NC(=O)[C@H](Cc1ccccc1)NC(=O)[C@@H](NC(=O)[C@H](CC(C)C)NC(=O)[C@H](CC(=O)O)NC(=O)[C@H](CC(C)C)NC(=O)[C@H](CO)NC(=O)[C@@H](NC(=O)[C@@H]1CCCN1C(=O)[C@@H]1CCCN1C(=O)[C@H](CCC(=O)O)NC(=O)[C@H](CCC(=O)O)NC(=O)[C@@H](N)CO)[C@@H](C)CC)[C@@H](C)O)C(C)C)[C@@H](C)CC)C(N)=O [cCRH]

Molecule: GCG-like peptide [GCGL]
chicken pituitary TSH expression/secretion (in words) [2]: reported to stimulate chicken pituitary TSH expression/secretion

Molecule: corticotropin-releasing hormone [CRH]
ACTH secretion and synthesis from the pituitary (in words) [3]: stimulates adrenocorticotropic hormone (ACTH) secretion and synthesis from the pituitary
activation of both CRH receptors in chickens (in words) [4]: equipotent activation of both receptors; also recorded: equipotent in activating both receptors
affinity for CRHR1 versus CRHR2 (in words) ([4]; mammals, Xenopus and zebrafish): higher affinity to CRHR1 than to CRHR2
pituitary TSH secretion and/or expression (in words) ([5]; non-mammalian vertebrates, including birds, amphibians and reptiles): elevate pituitary thyroid stimulating hormone (TSH) secretion and/or expression
pituitary TSH secretion and synthesis (in words) ([5]; some non-mammalian vertebrates including chickens): responsible for stimulating pituitary TSH secretion and synthesis

Molecule: urocortin I (DNPSLSIDLTFHLLRTLLELARTQSQRERAEQNRIIFDSV; ends and bridges not checked; UniProt P55089 83-122, looked up) [UCN1, CRH family peptide urocortin I]
ACTH-releasing activity in vitro (in words) ([3]; in vitro): potent ACTH-releasing activity in vitro
affinity/selectivity for CRHR1 and CRHR2 (in words) [4]: binds to them with similar affinities

Molecule: urocortin II (IVLSLDVPIGLLQILLEQARARAAREQATTNARILARVGHC; Urocortin-2; UniProt Q96RP3 72-112, looked up) [UCN2, CRH family peptide urocortin II]
affinity/selectivity for CRHR1 and CRHR2 (in words) [4]: highly selective for CRHR2

Molecule: urocortin III (FTLSLDVPTNIMNLLFNIAKAKNLRAQAAANAHLMAQI; ends and bridges not checked; UniProt Q969E3 120-157, looked up) [UCN3, CRH family peptide urocortin III]
affinity/selectivity for CRHR1 and CRHR2 (in words) [4]: highly selective for CRHR2
